Reference: ChEMBL document CHEMBL1201862, “PubChem BioAssay data set” (2004)
Activity calls are given as the source filed them.

Legend:
[1] = molecular target: T1, RNA-binding protein pos-1 (Caenorhabditis elegans, UniProt G5EF15); experiment: inhibitors of POS-1/mex-3 RNA binding, dose response, biochemical, fluorescence polarization (AID 1964);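 note: purified POS-1 fused to maltose binding protein made in E. coli; potency of compounds blocking POS-1 binding to fluorescent RNA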
T1 sequence (G5EF15 whole entry): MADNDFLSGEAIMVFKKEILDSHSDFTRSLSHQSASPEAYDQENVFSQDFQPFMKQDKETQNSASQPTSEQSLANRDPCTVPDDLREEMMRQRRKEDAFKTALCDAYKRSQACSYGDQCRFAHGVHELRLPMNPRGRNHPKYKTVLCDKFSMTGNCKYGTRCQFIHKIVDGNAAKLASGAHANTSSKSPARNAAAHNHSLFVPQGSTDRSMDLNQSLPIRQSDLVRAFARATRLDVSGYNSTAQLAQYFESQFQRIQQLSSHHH

NS3 = NS3 (Hepatitis C virus, UniProt A3EZJ3); experiment: PubChem AID 2173; design: species or system Hepacivirus hominis
[2] = molecular target: T2, Zinc finger protein mex-5 (Caenorhabditis elegans, UniProt Q9XUB2); experiment: MEX-5/TCR-2 RNA interaction inhibitors, dose response, biochemical, C. elegans, fluorescence polarization (AID 1960)
T2 sequence (Q9XUB2 whole entry): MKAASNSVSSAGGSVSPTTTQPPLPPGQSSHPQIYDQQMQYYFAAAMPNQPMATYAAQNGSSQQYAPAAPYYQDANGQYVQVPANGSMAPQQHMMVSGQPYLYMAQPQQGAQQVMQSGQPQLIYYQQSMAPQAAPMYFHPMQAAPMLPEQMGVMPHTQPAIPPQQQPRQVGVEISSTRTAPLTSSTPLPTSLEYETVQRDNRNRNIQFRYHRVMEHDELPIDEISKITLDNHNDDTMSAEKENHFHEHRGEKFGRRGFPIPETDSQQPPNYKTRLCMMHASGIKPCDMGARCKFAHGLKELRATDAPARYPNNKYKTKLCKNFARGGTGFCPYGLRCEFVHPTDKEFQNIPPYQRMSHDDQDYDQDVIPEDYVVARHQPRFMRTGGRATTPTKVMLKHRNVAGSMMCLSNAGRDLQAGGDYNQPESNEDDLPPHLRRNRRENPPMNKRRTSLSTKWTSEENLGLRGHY

cells = assay type: functional, cell-based
[3] = inhibitors of SNCA 5'UTR-driven translation, confirmation, luminescence, H4 neuroglioblastoma cells, dose confirmation (AID 2454); assay type: functional, cell-based;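 note: H4 neuroglioblastoma cells carrying an alpha-synuclein 5'UTR luciferase reporter; potency for inhibition of the luciferase signal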
[4] = inhibitors of firefly luciferase expression or activity, dose response, H4 neuroglioma cells, luminescence (AID 1990); assay type: functional, cell-based
[5] = luciferase reporter signal reduction – luminescence, H4-C neuroglioblastoma cells, dose response (AID 2458); assay type: functional, cell-based;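 note: H4 neuroglioblastoma cells stably carrying a luciferase reporter gene fusion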
[6] = inhibitors of SNCA 5'UTR-driven reporter translation, confirmation, H4 neuroglioma cells, luminescence (AID 1988); assay type: functional, cell-based
Estrogen receptor = molecular target: T3, Estrogen receptor (Homo sapiens, UniProt P03372); experiment: ERα–SRC-3 coactivator interaction inhibitors, confirmation, orthogonal assay, biochemical, ELISA, streptavidin-HRP readout (AID 1079)
T3 sequence (P03372 whole entry): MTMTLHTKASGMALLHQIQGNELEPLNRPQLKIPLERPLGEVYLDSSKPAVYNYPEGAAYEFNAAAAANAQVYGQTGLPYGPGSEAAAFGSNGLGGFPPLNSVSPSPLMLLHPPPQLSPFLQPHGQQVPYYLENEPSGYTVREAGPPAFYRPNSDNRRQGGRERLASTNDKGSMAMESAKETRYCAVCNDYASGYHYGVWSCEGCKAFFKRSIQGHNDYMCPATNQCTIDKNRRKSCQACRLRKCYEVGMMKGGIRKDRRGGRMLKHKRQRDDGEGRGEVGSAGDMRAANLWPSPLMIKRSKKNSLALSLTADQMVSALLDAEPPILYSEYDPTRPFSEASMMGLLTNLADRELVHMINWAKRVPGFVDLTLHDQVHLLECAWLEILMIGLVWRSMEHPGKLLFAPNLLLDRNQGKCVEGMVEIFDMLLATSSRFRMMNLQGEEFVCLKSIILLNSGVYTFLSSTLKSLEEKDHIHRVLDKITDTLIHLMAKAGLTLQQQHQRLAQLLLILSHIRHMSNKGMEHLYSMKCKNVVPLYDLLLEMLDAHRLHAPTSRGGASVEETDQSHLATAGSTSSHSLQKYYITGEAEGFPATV

[7] = Shn3 3'UTR reporter inhibitors, dose response, cell-based, Clone20 osteoblasts, firefly luciferase, cherry-picked (AID 624132); assay type: functional;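 note: firefly luciferase luminescence from reporter carrying the Shn3 3'UTR in osteoblasts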
[8] = control 3'UTR Renilla luciferase suppression, dose response, counter-screen for Shn3 inhibitor project, cell-based, Clone20-Shn3RL, cherry-picked (AID 624133); assay type: functional
Protein Wnt-3a = Protein Wnt-3a (Mus musculus, UniProt P27467); experiment: Wnt3a-driven reporter signaling inhibition, dose response, selectivity assay for Gli-SUFU antagonist project, Wnt-LIGHT cells, luminescence (AID 651570); assay type: functional; settings: read-out: IC50_Mean;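 note: Wnt-LIGHT reporter cells stimulated with conditioned medium from Wnt3a-producing cells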
[9] = HepG2 cell cytotoxicity, dose response, cytotoxicity control for Shn3 inhibitor project, CellTiter-Glo, cherry-picked (AID 624134); assay type: functional, cell-based
Oxytocin receptor = Oxytocin receptor (Homo sapiens, UniProt P30559); experiment: Fluorescence-based cell-based high throughput dose response assay for agonists of the Oxytocin Receptor (OXTR). [Related pubchem assays: 2435 (Primary screen (OXTR agonists in singlicate)), 434991 (Counterscreen (V1R agonists in triplicate)), 2482 (Summary (OXTR agonists)), 434963 (Confirmation screen (OXTR agonists in triplicate))]; assay type: functional
Vasopressin V1a receptor = Vasopressin V1a receptor (Homo sapiens, UniProt P37288); experiment: Counterscreen for Oxytocin Receptor (OXTR) agonists: Fluorescence-based cell-based high throughput dose response assay to identify agonists of the vasopressin 1 receptor (V1R). [Related pubchem assays: 2435 (Primary screen (OXTR agonists in singlicate)), 434991 (Counterscreen (V1R agonists in triplicate)), 2482 (Summary (OXTR agonists)) …; assay type: functional
[10] = molecular target: Potassium voltage-gated channel subfamily KQT member 2 (Rattus norvegicus, UniProt O88943); experiment: Mode of action assay - current amplitude concentration response for derivatives of ZTZ240, a potentiator of KCNQ2 potassium channels. [Related pubchem assays: 2258 (Summary assay for the KCNQ2 potentiators.), 2239 (Primary HTS assay for KCNQ2 potentiators with 305606 compounds tested, and 1644 are found to be active.)]; assay type: functional
[11] = molecular target: T4, Dual specificity protein phosphatase 6 (Rattus norvegicus, UniProt Q64346);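 note: in vitro confirmatory secondary MKP-3 assay designed to detect irreversible or slow-binding inhibitors; recombinant His-tagged rat MKP-3 acting on the substrate OMFP; inhibitor potency from reduced phosphatase rate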
T4 sequence (Q64346 whole entry): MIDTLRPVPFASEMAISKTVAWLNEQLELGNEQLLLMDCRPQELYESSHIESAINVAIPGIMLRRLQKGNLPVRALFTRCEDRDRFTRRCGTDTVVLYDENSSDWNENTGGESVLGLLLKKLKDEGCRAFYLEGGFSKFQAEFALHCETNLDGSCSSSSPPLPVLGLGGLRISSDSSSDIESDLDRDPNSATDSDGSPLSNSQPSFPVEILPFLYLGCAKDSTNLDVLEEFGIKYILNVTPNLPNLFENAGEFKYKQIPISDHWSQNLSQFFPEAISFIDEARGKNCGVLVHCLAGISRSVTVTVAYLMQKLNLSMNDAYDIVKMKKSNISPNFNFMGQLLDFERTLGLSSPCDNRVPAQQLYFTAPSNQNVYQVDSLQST

[12] = molecular target: Heat shock cognate 71 kDa protein (Homo sapiens, UniProt P11142); experiment: In Vitro Hsc70 Dose Response Fluorescence Polarization Assay. [Related pubchem assays: 1072 ]
[13] = molecular target: Heat shock 70 kDa protein 1A (Homo sapiens, UniProt P0DMV8); experiment: Hsp70 inhibitors, SAR follow-up, biochemical, fluorescence polarization (AID 1072)
[14] = molecular target: Glyceraldehyde-3-phosphate dehydrogenase (Homo sapiens, UniProt P04406)
[15] = molecular target: T5, Tyrosine-protein phosphatase non-receptor type 7 (Homo sapiens, UniProt P35236); assay type: functional
T5 sequence (P35236 whole entry): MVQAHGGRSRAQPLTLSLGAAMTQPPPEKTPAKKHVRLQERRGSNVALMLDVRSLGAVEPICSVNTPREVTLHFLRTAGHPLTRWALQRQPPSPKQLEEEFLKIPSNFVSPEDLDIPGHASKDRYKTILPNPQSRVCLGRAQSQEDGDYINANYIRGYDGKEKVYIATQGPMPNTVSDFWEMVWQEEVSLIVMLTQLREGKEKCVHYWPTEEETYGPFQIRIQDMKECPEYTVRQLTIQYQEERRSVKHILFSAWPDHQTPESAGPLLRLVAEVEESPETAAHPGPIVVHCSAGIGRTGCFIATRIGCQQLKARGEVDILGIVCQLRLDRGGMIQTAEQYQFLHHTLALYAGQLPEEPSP

[16] = SNU-C1 cell viability reduction, dose response, CellTiter-Glo luminescence (AID 1117323); assay type: functional, cell-based
[17] = Glucagon-like peptide 1 release potency, NCI-H716 cell line, dose-response, half-maximal inhibitory concentration (AID 1117344); assay type: functional, cell-based
[18] = cytotoxicity toward Colo320 cells – cell-based, CellTiter-Glo luminescence, IC50, dose response (AID 1117334); assay type: functional; settings: COLO 320
Fatty acid synthase = Fatty acid synthase (Homo sapiens, UniProt P49327); experiment: FAS thioesterase domain inhibitors, dose response, biochemical, kinetic fluorescence intensity (AID 624326); assay type: functional;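 note: rate of fluorescence rise from hydrolysis of a fluorogenic O-methyl fluorescein ester substrate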
[19] = half-maximal inhibitory concentration for glucagon-like peptide-1 release, STC-1 cell line, dose-response (AID 1117345); assay type: functional, cell-based
[20] = CellTiter-Glo luminescent dose response of DLD-1 viability loss (AID 1117352); assay type: functional
[21] = HCT116 cell viability decrease, GSK3B pretreatment – CellTiter-Glo, IC50, dose response (AID 1117339); assay type: functional; settings: HCT-116
[22] = molecular target: Voltage-gated inwardly rectifying potassium channel KCNH2 (Homo sapiens, UniProt Q12809); settings: Potency;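 note: confirmatory quantitative high-throughput screen measuring inhibition of hERG channel activity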
[23] = molecular target: Heat shock protein HSP 90-alpha (Homo sapiens, UniProt P07900); assay type: functional, organism-based
Cysteine protease ATG4B = molecular target: T6, Cysteine protease ATG4B (Homo sapiens, UniProt Q9Y4P1); assay type: functional;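 note: Fluorescence-based dose-response confirmation assay measuring inhibition of ATG4B activity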
T6 sequence (Q9Y4P1 whole entry): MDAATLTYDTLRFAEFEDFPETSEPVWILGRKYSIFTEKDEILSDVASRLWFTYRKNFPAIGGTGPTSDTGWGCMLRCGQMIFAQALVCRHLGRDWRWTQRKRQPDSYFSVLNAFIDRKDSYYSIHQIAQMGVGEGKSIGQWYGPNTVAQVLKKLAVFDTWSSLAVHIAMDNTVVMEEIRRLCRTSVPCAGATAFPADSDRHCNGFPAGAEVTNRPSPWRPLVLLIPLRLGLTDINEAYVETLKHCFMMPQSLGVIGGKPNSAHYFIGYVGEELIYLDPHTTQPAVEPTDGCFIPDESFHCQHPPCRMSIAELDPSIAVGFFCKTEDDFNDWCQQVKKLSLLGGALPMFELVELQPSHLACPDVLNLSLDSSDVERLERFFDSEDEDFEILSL

[24] = cytotoxicity toward HCT116 cells – cell-based, CellTiter-Glo luminescence, IC50, dose response (AID 1117332); assay type: functional; settings: HCT-116
Phospholipase A2 = Phospholipase A2 (Homo sapiens, UniProt P04054); assay type: functional;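 note: confirmatory dose-response counterscreen on phospholipase A2, testing hits that came from an ultra-high-throughput screen for ATG4B inhibitors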
[25] = Concentration-dependent survival of SW480 colon cancer line, luminescence detection with CellTiter-Glo, half-maximal inhibitory concentration (AID 1117338); assay type: functional
[26] = RKO cell viability reduction, dose response, CellTiter-Glo luminescence (AID 1117322); assay type: functional
Cytochrome P450 2D6 = Cytochrome P450 2D6 (Homo sapiens, UniProt P10635); experiment: qHTS Assay for Inhibitors and Substrates of Cytochrome P450 2D6. [Related pubchem assays: 410 ]; assay type: ADME; settings: read-out: Potency
Sequence of Cytochrome P450 2D6 (P10635 whole entry): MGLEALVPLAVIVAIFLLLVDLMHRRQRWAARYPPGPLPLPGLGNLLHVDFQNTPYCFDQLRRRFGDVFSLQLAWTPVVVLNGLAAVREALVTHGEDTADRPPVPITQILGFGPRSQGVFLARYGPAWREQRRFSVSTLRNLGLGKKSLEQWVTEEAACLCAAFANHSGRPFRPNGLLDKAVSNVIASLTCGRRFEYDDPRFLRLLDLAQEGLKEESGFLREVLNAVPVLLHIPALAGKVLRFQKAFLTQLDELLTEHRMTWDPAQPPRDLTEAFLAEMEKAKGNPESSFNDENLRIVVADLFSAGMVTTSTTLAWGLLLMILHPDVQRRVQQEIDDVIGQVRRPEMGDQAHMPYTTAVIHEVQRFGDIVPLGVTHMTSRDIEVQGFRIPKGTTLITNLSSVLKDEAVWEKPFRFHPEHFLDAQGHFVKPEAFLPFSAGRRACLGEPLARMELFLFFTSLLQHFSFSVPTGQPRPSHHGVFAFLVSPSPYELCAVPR

Sequence of Fatty acid synthase (P49327 whole entry, the tested form may be a part): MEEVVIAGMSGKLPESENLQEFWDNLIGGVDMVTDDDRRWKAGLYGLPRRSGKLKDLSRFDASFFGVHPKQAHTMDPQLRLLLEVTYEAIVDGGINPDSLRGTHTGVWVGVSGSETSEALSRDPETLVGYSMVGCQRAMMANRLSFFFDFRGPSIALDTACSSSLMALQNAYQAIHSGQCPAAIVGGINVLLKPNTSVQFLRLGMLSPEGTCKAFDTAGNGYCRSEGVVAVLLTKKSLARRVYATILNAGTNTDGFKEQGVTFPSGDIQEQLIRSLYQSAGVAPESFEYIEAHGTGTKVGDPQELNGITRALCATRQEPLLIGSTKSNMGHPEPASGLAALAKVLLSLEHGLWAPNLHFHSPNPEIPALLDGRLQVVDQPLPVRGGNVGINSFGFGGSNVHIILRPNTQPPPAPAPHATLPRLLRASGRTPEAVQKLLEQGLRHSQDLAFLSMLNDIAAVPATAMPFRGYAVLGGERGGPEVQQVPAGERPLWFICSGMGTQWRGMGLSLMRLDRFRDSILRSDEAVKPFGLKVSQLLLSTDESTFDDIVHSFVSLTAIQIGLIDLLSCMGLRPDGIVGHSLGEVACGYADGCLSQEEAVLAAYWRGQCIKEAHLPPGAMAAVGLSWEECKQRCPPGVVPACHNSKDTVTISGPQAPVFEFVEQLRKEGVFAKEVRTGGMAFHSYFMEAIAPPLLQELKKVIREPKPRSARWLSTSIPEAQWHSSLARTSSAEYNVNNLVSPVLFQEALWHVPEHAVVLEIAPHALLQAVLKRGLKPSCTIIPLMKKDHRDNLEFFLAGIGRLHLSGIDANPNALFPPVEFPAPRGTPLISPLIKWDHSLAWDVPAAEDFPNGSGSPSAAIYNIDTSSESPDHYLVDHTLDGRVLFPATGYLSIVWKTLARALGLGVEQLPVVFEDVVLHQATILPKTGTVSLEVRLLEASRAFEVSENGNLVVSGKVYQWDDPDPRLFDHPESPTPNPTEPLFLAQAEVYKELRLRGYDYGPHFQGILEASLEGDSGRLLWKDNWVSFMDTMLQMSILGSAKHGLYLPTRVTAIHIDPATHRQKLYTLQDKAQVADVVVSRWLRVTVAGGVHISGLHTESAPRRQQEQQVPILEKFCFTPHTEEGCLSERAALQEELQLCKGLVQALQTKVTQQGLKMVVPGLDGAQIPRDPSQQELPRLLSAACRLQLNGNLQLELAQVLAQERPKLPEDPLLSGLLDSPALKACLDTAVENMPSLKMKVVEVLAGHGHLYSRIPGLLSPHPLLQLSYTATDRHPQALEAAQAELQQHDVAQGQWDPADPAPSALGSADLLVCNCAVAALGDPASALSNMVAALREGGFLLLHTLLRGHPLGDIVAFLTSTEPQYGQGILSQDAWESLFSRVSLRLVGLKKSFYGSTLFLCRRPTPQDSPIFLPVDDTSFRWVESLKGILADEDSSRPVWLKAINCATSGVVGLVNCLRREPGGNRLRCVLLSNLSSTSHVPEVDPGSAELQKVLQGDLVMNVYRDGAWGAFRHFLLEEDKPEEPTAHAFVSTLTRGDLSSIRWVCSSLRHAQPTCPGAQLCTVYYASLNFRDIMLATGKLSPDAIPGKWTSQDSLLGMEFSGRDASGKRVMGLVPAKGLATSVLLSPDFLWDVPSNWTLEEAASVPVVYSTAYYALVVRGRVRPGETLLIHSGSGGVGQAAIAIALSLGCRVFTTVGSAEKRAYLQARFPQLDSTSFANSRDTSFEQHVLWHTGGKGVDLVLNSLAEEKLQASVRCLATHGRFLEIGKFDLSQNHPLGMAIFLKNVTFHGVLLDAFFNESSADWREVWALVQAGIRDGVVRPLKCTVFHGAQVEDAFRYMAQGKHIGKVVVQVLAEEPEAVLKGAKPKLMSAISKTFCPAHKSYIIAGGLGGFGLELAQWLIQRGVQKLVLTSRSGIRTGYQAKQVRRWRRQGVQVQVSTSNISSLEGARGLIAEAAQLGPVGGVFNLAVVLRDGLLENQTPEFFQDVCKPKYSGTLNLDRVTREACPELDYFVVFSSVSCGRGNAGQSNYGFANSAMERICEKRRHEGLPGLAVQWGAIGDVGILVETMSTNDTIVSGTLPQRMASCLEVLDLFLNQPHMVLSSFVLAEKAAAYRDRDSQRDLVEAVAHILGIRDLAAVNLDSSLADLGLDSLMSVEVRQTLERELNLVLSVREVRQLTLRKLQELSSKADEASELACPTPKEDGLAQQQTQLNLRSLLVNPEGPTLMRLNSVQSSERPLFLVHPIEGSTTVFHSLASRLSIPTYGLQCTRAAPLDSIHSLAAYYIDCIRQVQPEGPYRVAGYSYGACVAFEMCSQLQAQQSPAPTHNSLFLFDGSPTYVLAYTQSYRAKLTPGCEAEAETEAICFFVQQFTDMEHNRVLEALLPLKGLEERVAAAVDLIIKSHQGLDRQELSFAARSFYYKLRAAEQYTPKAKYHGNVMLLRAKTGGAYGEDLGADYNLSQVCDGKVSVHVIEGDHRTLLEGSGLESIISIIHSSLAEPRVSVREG
Sequence of Vasopressin V1a receptor (P37288 whole entry): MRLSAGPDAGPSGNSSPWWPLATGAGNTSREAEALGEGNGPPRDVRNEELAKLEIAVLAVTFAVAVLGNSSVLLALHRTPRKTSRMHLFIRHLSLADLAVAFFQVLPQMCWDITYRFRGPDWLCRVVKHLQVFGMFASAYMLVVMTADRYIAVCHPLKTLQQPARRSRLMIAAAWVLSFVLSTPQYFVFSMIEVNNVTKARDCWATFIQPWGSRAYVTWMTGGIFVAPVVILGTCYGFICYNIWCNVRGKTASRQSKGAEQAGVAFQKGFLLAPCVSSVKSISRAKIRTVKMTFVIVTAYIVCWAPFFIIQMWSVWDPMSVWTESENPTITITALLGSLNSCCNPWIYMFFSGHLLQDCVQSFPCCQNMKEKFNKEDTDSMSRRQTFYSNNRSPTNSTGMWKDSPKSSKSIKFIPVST
Sequence of NS3 (A3EZJ3 whole entry): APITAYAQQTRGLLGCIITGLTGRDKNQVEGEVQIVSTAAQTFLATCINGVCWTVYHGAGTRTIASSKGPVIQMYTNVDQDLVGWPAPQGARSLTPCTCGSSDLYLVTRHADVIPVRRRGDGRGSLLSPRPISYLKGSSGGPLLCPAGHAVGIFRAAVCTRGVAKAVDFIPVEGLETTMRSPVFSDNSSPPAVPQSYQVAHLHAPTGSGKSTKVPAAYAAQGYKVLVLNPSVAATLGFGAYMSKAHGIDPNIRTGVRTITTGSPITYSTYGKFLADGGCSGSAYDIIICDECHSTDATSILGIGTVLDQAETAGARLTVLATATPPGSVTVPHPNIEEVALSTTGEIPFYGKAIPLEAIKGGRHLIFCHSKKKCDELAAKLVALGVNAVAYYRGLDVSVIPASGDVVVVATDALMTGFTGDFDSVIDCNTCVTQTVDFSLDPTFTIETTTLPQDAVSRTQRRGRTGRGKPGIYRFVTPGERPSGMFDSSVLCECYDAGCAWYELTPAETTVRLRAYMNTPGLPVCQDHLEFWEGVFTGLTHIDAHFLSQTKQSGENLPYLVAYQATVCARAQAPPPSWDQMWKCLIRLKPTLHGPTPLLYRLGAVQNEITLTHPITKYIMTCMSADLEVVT
Sequence of Potassium voltage-gated channel subfamily KQT member 2 (O88943 whole entry): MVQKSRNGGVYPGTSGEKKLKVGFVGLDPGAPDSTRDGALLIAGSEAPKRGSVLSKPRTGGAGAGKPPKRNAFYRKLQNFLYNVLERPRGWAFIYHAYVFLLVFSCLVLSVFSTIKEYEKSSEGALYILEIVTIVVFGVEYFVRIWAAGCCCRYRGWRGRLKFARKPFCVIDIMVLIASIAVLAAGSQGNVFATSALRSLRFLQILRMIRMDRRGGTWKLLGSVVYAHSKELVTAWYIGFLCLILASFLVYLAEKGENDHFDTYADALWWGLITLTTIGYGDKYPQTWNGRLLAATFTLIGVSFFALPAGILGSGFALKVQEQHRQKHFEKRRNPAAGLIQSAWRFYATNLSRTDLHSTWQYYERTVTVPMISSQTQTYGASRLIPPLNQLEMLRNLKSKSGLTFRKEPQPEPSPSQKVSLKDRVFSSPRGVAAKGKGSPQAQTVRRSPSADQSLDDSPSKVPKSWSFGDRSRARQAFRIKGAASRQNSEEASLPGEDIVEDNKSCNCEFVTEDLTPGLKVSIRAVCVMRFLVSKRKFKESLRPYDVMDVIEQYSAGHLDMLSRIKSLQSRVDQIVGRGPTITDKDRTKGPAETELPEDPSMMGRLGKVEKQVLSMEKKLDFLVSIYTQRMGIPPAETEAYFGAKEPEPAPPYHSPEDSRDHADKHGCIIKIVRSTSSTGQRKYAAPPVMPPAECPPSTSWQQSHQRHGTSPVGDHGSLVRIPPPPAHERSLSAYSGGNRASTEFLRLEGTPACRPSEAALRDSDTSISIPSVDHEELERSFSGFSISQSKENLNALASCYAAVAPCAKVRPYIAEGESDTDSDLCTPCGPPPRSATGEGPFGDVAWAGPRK
Sequence of Phospholipase A2 (P04054 whole entry): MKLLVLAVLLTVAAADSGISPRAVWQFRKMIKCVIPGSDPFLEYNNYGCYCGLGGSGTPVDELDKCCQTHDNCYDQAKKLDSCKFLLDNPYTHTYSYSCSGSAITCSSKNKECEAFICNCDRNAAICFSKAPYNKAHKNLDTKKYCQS

## COc1cccc(C2C(C#N)=C(N)OC3=C2C(=O)CC(c2ccco2)C3)c1OCc1ccc(F)cc1 (stereo unspecified)
[1]
  EC50: > 300 µM (not active)
NS3
  IC50: 33.5 µM (not active)
[2]
  EC50: > 300 µM (not active)

## COc1ccc(C2NCc3ccc4c(c3-n3cccc32)OCO4)cc1O (stereo unspecified)
cells
  EC50: 5.44 µM (active)
[3]
  EC50: > 12 µM (not active)
[4]
  EC50: < 0.1 µM (active)
[5]
  EC50: 2.6 µM (active)
[6]
  EC50: < 0.1 µM (active)

## O=C(CCCCCn1c(=S)[nH]c2ccccc2c1=O)N1CCN(c2cccc(Cl)c2)CC1
Estrogen receptor
  IC50: 0.35 µM (not active)

## COc1ccc(CNc2[nH]cnc3c4ccccc4nc2-3)cc1
[7]
  AC50: 4.19 µM (active)
[8]
  AC50: 5.89 µM (active)
Protein Wnt-3a
  IC50: 12.4 µM (active)
[9]
  AC50: 28 µM (active)
Oxytocin receptor
  EC50: 27.4 µM (not active)
Vasopressin V1a receptor
  EC50: > 29.9 µM (not active)

## O=C(Nc1ccc(Br)nc1)c1ccc(F)c(F)c1
[10]
  EC50: 3.72 µM (active)

## COC(=O)c1ccccc1OC(=O)c1ccc2c(c1)C1C=CCC1C(C(=O)O)N2 (stereo unspecified)
[11]
  IC50: 17 µM (active)
[12]
  IC50: 115 µM (active)
[13]
  IC50: 28 µM (active)
[14]
  IC50: 93.6 µM (active)
[15]
  IC50: 2.8 µM (active)

## Oc1ccc(Cl)cc1Sc1cc(Cl)ccc1O [FENTICLOR]
[16]
  IC50: 1.85 µM (active)
[17]
  IC50: 21.3 µM (inactive)
[18]
  IC50: 0.075 µM (active)
Fatty acid synthase
  IC50: 3.52 µM (active)
[19]
  IC50: > 20 µM (inactive)
[20]
  IC50: 0.301 µM (active)
[21]
  IC50: 0.148 µM (active)
[22]
  AC50: 31.6 µM (inconclusive)
[23]
  AC50: 4.11 µM (active)
Cysteine protease ATG4B
  IC50: 11 µM (active)
[24]
  IC50: 0.183 µM (active)
Phospholipase A2
  IC50: 15.2 µM (active)
[25]
  IC50: 0.579 µM (active)
[26]
  IC50: 0.116 µM (active)
Cytochrome P450 2D6
  AC50: 3.16 µM (inconclusive)
